# Data published in PMC4199632, “Exploring the Anti-Cancer Activity of Novel Thiosemicarbazones Generated through the Combination of Retro-Fragments: Dissection of Critical Structure-Activity Relationships” (PLoS ONE, 2014).
# Legend:
# [1] = tested on: HCT116 p53+/+ colon cancer cells; experiment: Proliferation assay (MTS, 96 h); assay type: cell-based, human; conditions: for IC50: Homo sapiens, HCT-116, 96 h incubation, MTS, mean ±SD (3 experiments)
# Description: (§1) The human cancer cell types (neuroepithelioma (SK-N-MC), colon cancer (HCT116 with wild-type p53 (p53^+/+)), Burkitt's lymphoma (Raji) and cervical carcinoma (HeLa)) cells and normal human dermal fibroblasts (NHDF) were obtained from the American Type Culture Collection (ATCC, Manassas, VA, USA). HCT116 null p53 (p53^−/−) cells were obtained from the Maria Sklodowska-Curie Memorial Cancer Center and Institute of Oncology, Poland.
# (§2) The SK-N-MC cells were cultured in minimum essential medium (MEM; Life Technologies, Grand Island, New York, USA) containing 10% (v/v) fetal bovine serum (FBS; Life Technologies), 1 mM sodium pyruvate (Life Technologies), 1% (v/v) non-essential amino acids (Life Technologies), 2 mM L-glutamine (Life Technologies), 100 U/mL penicillin (Life Technologies), 100 µg/mL streptomycin (Life Technologies) and 0.28 µg/mL fungizone (Bristol Myers Squibb Pharmaceuticals, Montreal, Canada). The HCT116 and NHDF cells were grown in Dulbecco's modified Eagle's medium (DMEM; Sigma-Aldrich) supplemented with 12% (v/v) heat-inactivated FBS (HCT116; Life Technologies) or 15% (v/v) FBS (NHDF; Life Technologies), 100 µg/mL of gentamicin (Polfa Warszawa S.A., Warsaw, Poland), 100 µg/mL of streptomycin (Polfa) and 100 U/mL of penicillin (Polfa). The Raji and HeLa cells were cultured in Roswell Park Memorial Institute medium (RPMI-1640; Sigma-Aldrich) with the addition of 10% (v/v) heat-inactivated FBS (Life Technologies) and the supplements described for SK-N-MC cells above. All cell lines were cultured under standard conditions at 37°C in a humidified atmosphere at 5% CO2 and were subcultured every 3–4 days as required.
# (§3) The cells were seeded in 96-well plates (SK-N-MC: 1.5×10^4 cells/well; HeLa: 5.0×10^3 cells/well; Raji: 3.0×10^3 cells/well; HCT116: 3.5×10^3 cells/well; NHDF: 3.0×10^3 cells/well) 24 h prior to the addition of the novel compounds. The assays were performed using a 72 h (SK-N-MC, Raji, HeLa) or 96 h (HCT 116, NHDF) incubation period with the agents at 37°C. […] Additionally, DFO and Dp44mT were included as positive controls in all experiments as their activity is well characterized, [42], [50].
# (§4) Chelator stock solutions were prepared in DMSO and diluted in media so that the final [DMSO] <0.05%. The results were expressed as a percentage of the control and the resulting IC50 values were calculated using GraphPad Prism 5 (GraphPad Software, Inc., La Jolla, CA, USA). The IC50 was defined as the concentration necessary to reduce the absorbance to 50% of the untreated control. Each individual compound was tested in triplicate in a single experiment, with each experiment being repeated three times. After incubation of HCT 116 and NHDF cells with the tested compounds, 20 µL of the CellTiter 96 Aqueous One Solution - MTS (Promega, Madison, WI, USA) solution was added to each well (with 100 µL of DMEM without phenol red) and incubated for 1 h/37°C. The optical density of the samples was analyzed at 490 nm.
# [2] = tested on: HCT116 p53−/− colon cancer cells; experiment: Proliferation assay (MTS, 96 h); assay type: cell-based, human; conditions: for IC50: Homo sapiens, HCT-116, 96 h, 96 h incubation, MTS, mean ±SD (3 experiments)
# Description: as §1, §2, §3, §4
# [3] = tested on: Raji Burkitt's lymphoma cells; experiment: Proliferation assay (MTT, 72 h); assay type: cell-based; conditions: Homo sapiens, 72 h incubation, mean ±SD (3 experiments)
# Description: as §1, §2, §3, §4
# (§5) MTT (3-[4,5-dimethylthiazol-2-yl]-2,5-diphenyltetrazolium bromide) was used to evaluate the anti-proliferative effects of the chelators in SK-N-MC and Raji cells. Following incubation with the investigated compounds, 10 µL of MTT (5 mg/mL in PBS; Sigma-Aldrich) was added to each well. After a 2 h (SK-N-MC) or 4 h (Raji) incubation, the plates were centrifuged, and the cells were lysed with 100 µL of 10% SDS-50% isobutanol in 0.01 M HCl (SK-N-MC) or DMSO (Raji). The absorbance was measured at 570 nm. The anti-proliferative effects of these novel agents on HeLa cells were estimated using crystal violet staining (0.5% crystal violet solution for 10 min). Finally, the wells were rinsed with water and the cells were lysed with 2% SDS. The optical density of the samples was analyzed at 595 nm.
# [4] = tested on: SK-N-MC neuroepithelioma cells; experiment: Proliferation assay (MTT, 72 h); assay type: cell-based; conditions: Homo sapiens, 72 h incubation, mean ±SD (3 experiments)
# Description: as §1, §2, §3, §4, §5
# [5] = tested on: HeLa cervical carcinoma cells; experiment: Proliferation assay (crystal violet, 72 h); assay type: cell-based; conditions: Homo sapiens, 72 h incubation, mean ±SD (3 experiments)
# Description: as §1, §2, §3, §4, §5
# [6] = tested on: normal human dermal fibroblast (NHDF) cells; experiment: Proliferation assay (MTS, 96 h), normal mortal cells; assay type: cell-based; conditions: Homo sapiens, NHDF, 96 h, 96 h incubation, mean ±SD (3 experiments)
# Description: as §1, §2, §3, §4
# [7] = Ascorbate oxidation assay (iron complexes); assay type: biochemical; conditions: iron complex, IBE 3
# Description: The ability of the iron complexes of the novel ligands to mediate the oxidation of the physiological substrate, ascorbate, was examined using established methods, [18], [22], [52], [53]. Ascorbic acid (100 µM) was prepared immediately prior to each experiment and was incubated in the presence of Fe^III (10 µM; as FeCl3), the chelator (1–60 µM) and a 50-fold molar excess of citrate (500 µM). The absorbance at 265 nm was measured after 10 and 40 min and the difference in absorbance at these time points was calculated. The results of these experiments were expressed as iron-binding equivalents (IBE) due to the different denticity of the chelators examined. The chelators, Dp44mT, DFO and ethylenediaminetetraacetic acid (EDTA) were used as controls as the ability of their iron complexes to oxidize ascorbate has been extensively characterized, [15], [52], [53].
# The ability of the iron complexes of the novel TSCs to catalyze the oxidation of the physiological substrate, ascorbate, was important to assess as redox cycling may play a critical role in their anti-proliferative activity, [15], [18], [52], [53]. Thus, the oxidation of ascorbate mediated by the iron complexes of series 1–6 were examined in comparison to the iron complexes of the control compounds, DFO, EDTA and Dp44mT, as the ability of the latter to oxidize ascorbate is well characterized, [15], [52], [53], [68]. The results were expressed as a percentage of the control (no chelator) at iron-binding equivalents (IBEs) of 0.1 (excess “free” iron), 1 (iron-chelator complexes with a fully filled coordination sphere), or 3 (excess free chelator), due to the different denticity of the chelators examined (Fig. 10).
# Figure 10 Effect of the iron complexes of (A) series 1, (B) series 2, (C) series 3, (D) series 4, (E) series 5 and (F) series 6 chelators, relative to DFO, Dp44mT and EDTA, on ascorbate oxidation. Chelators at iron-binding equivalent (IBE) ratios of 0.1, 1, and 3 were incubated in the presence of Fe^III (10 µM) and ascorbate (100 µM). The UV-Vis absorbance at 265 nm was recorded after 10 and 40 min, and the difference between the time points was calculated. Results are mean ±SD (3 experiments).
# [8] = tested on: HCT116 p53+/+, HCT116 p53−/−, Raji, HeLa, SK-N-MC and NHDF cells; experiment: Proliferation assay, ranges stated over several cell-types; assay type: cell-based, human
# Description: as §1, §2, §3, §4, §5
IC50 [1] [µM],IC50 [2] [µM],IC50 [3] [nM],IC50 [4] [nM],IC50 [5] [nM],"IC50 ([8]; Homo sapiens, HCT-116, range over HCT116 p53+/+ and p53−/− cells and over the compounds named, read-out: IC50 range in HCT116 cells) [nM]",SMILES,IC50 [6] [µM],"Ascorbate oxidation (% of the control) ([7]; FeIII 10 µM, ascorbate 100 µM)",Ascorbate oxidation compared with controls [7],Therapeutic index NHDF vs. HCT116 p53+/+ ([1]; NHDF cell IC50 divided by HCT116 p53+/+ IC50),Therapeutic index NHDF vs. HCT116 p53−/− ([2]; NHDF cell IC50 divided by HCT116 p53−/− IC50),"Therapeutic index, NHDF relative to HCT116 cells ([8]; range over HCT116 p53+/+ and p53−/− and over the compounds named)"
0.02 ± 0.002,0.04 ± 0.003,80 ± 20,180 ± 90,480 ± 310,,CCN1CCN(C(=S)NN=C(c2ccccn2)c2ccccn2)CC1 [1a],0.017 ± 0.004,,,,,
1.49 ± 0.02,1.56 ± 1.12,60 ± 10,1400 ± 690,1750 ± 330,,S=C(N/N=C/c1ccc2ccccc2n1)N1CCOCC1 [2c],3.27 ± 0.88,,,,,
0.088 ± 0.044,0.48 ± 0.15,290 ± 110,480 ± 100,1560 ± 440,,S=C(N/N=C/c1ccc2ccccc2n1)N1CCN(c2cnccn2)CC1 [2e],9.44 ± 3.84,200–265%,,,,
9.25 ± 1.42,8.83 ± 0.63,200 ± 20,820 ± 610,3410 ± 1460,,CCN1CCN(C(=S)N/N=C/c2ccc3cccc(O)c3n2)CC1 [3a],15.8 ± 4.6,,increased levels of ascorbate oxidation,,,
4.18 ± 1.46,4.67 ± 2.04,190 ± 20,> 6250,8450 ± 2090,,Oc1cccc2ccc(/C=N/NC(=S)N3CCN(c4ccccc4)CC3)nc12 [3b],8.88 ± 1.07,,,,,
0.004 ± 0.002,0.017 ± 0.006,20 ± 10,> 6250,180 ± 70,2 to 17,Oc1cccc2ccc(/C=N/NC(=S)N3CCOCC3)nc12 [3c],,,,2650,624,18–2650
8.41 ± 1.78,8.46 ± 0.25,120 ± 40,> 6250,6590 ± 130,,Oc1cccc2ccc(/C=N/NC(=S)N3CCN(c4ccccn4)CC3)nc12 [3d],10.2 ± 2.4,,,,,
7.45 ± 0.66,8.88 ± 2.53,2230 ± 1200,4460 ± 780,4380 ± 950,,Oc1ccc2cccnc2c1/C=N/NC(=S)N1CCN(c2ccccc2)CC1 [4b],10.1 ± 1.2,,,,,
9.15 ± 1.19,6.84 ± 5.48,1550 ± 400,4540 ± 1600,2730 ± 550,,Oc1ccc2cccnc2c1/C=N/NC(=S)N1CCN(c2ccccn2)CC1 [4d],10.1 ± 2.7,,,,,
